Laboratory results: patent US20150018403A1, “FLUORENE-AMIDE COMPOUNDS AND PHARMACEUTICAL USE THEREOF” (JAPAN TOBACCO INC., priority 2013, published 2015)

Tests used:
[1] = target: T1, hERG current (hERG-transfected HEK293 cells) (Homo sapiens, UniProt Q12809); assay: hERG whole cell patch clamp test; type: cell-based; conditions: whole cell patch clamp, hERG-transfected HEK293 cells
T1 construct: host or cells: HEK293
Procedure: (§1) Using human ether-a-go-go related gene (hERG)-transfected HEK293 cells (Cytomyx Limited), an influence on hERG current was examined according to the whole cell patch clamp technique. The hERG-transfected HEK293 cells were passaged using a CO2 incubator (BNA-111, TABAI ESPEC CORP.) under the set conditions of 37° C., 5% CO2, saturated humidity. Culture containers used were Collagen Type I Coated 75 cm^2 flask (4123-010, AGC TECHNO GLASS CO., Ltd.) and Collagen Type I Coated 35 mm culture dish (4000-010, AGC TECHNO GLASS CO., Ltd.). The culture medium used was E-MEM (Eagle Minimum Essential Medium (Earle's Salts, Nikken biomedical laboratory) added with 10% FCS (Fetal bovine serum, BioWest, L.L.C.) and 1% MEM Non-Essential Amino Acids Solution (NEAA, Invitrogen Corporation). Geneticin for the selection of hERG gene expressing cells was added thereto to a concentration of 400 μg/mL. As the cells for the measurement, 3×10^4 hERG-transfected HEK293 cells were plated on a 35 mm culture dish 4 to 7 days before measurement of the hERG current. The culture dish produced for the measurement contained the above-mentioned culture medium without geneticin (Invitrogen Corporation).
(§2) The highest evaluation concentration of each compound was determined from the highest concentration at which precipitation was not found in the standard extracellular fluid (NaCl: 140 mmol/L, KCl: 2.5 mmol/L, MgCl2: 2 mmol/L, CaCl2: 2 mmol/L, HEPES: 10 mmol/L, glucose: 10 mmol/L (adjusted to pH 7.4 with Tris-base)). As the application method, each solution to be applied was ejected from a Y-tube having a tip diameter of about 0.25 mm, which was adjacent (about 2 mm) to the cells, and applied to the cells. The ejection rate was about 0.4 mL/min.
(§3) The experiment was performed at room temperature under a phase contrast microscope. The 35 mm culture dish plated with the cells was set on a measurement apparatus, and the standard extracellular fluid was continuously applied to the cells from the Y-tube. A glass electrode for the measurement was filled with an intracellular fluid (Potassium Gluconate: 130 mmol/L, KCl: 20 mmol/L, MgCl2: 1 mmol/L, ATP-Mg: 5 mmol/L, EGTA: 3.5 mmol/L, HEPES: 10 mmol/L (adjusted to pH 7.2 with Tris-base)). A conventional whole cell patch clamp method was applied to the cells, and the maintenance electric potential was set to −80 mV. Under a fixed electric potential, the whole cell current was amplified by an amplifier for patch clamp (AXOPATCH-200B, Axon Instruments, Inc.), and the data was loaded into a computer (IMC-P642400, Intermedical Co., Ltd.) using a data acquisition analysis software (pCLAMP 9.2, Axon Instruments, Inc.).
(§4) The measurement of the hERG current was performed in the following two steps. In both cases, the hERG current was initiated by giving a command potential (maintenance electric potential −80 mV, prepulse+20 mV, 1.5 sec, test-pulse −50 mV, 1.5 sec).
(§5) Step (1): The above-mentioned command potential was given at 0.1 Hz for 2 min.
(§6) Step (2): The above-mentioned command potential was subjected to P/3 subtraction of pCLAMP 9.2 to remove leak current. This was repeated three times and an average thereof was taken as hERG current.
(§7) Subsequent to step (1), Step (2) was performed (about 3 min), and the maximum tail current obtained by applying a test-pulse to the hERG current obtained by the method of step (2) was taken as hERG current value. Hereafter, the operations of (1) and (2) were alternately repeated until completion of the experiment and the hERG current value was measured.
(§8) Stable hERG current value was recorded three times (about 10 min), and the standard extracellular fluid was instantaneously exchanged with each application fluid. The hERG current value was measured three times (about 10 min) in the same manner during perfusion of the application fluid, and the current value obtained by the 3rd measurement was taken as hERG current value after perfusion of the application fluid. […]

hERG = target: T2, hERG (Homo sapiens, UniProt Q12809); assay: hERG whole cell patch clamp test; type: cell-based; conditions: human, HEK293 cells transfected with hERG, pH 7.4, read-out: hERG inhibition rate (%); for inhibition at 10 μmol/L: concentration 10 μmol/L
T2 construct: host or cells: HEK293
Procedure: as §1, §2, §3, §4, §5, §6, §7, §8

T2 sequence (Q12809 whole entry): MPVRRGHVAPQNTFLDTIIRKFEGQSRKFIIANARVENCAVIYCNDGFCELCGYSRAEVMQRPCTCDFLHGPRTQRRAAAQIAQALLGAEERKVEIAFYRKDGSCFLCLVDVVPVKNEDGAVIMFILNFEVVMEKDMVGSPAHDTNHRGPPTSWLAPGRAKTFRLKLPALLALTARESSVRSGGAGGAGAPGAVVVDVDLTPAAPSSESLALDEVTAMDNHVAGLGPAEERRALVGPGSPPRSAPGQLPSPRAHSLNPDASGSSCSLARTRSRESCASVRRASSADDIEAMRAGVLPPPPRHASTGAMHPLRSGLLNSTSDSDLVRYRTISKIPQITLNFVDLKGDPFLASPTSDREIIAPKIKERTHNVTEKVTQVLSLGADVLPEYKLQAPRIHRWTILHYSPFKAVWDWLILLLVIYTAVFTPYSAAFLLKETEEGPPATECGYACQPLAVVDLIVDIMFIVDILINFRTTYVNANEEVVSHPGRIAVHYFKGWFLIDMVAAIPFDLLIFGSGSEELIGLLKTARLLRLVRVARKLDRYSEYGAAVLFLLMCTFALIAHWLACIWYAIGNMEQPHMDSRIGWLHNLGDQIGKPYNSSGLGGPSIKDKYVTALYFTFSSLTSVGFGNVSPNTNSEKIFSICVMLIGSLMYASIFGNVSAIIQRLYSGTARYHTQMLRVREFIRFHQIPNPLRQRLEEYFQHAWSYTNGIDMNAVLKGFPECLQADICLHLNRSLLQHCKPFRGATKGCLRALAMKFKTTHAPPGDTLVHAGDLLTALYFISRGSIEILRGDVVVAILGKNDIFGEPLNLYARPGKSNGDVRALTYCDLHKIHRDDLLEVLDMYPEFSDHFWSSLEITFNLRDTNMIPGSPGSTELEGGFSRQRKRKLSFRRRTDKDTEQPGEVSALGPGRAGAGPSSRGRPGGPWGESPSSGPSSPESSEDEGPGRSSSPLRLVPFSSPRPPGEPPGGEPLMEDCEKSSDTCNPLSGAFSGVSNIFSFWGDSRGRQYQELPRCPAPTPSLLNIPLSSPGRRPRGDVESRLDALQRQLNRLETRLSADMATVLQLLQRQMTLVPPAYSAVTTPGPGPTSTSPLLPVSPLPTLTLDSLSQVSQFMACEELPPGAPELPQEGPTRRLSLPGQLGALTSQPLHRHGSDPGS
T1 sequence (Q12809 whole entry): as above

SMILES	IC50 [1] [µM]	inhibition at 10 μmol/L (hERG) [%]	inhibition at 100 μmol/L (hERG; concentration 100 μmol/L) [%]	inhibition at 1 μmol/L (hERG; concentration 1 μmol/L) [%]
C[C@H](O)COc1cc(-c2cnn(C(C)(C)C(N)=O)c2)c2c(c1)[C@@](O)(C(F)(F)F)c1ccccc1-2 [compound (2), 2-(4-{(9R)-9-hydroxy-2-[(2S)-2-hydroxypropoxy]-9-(trifluoromethyl)-9H-fluoren-4-yl}-1H-pyrazol-1-yl)-2-methylpropanamide]	58.8	7.5	62.9	
Cn1cc(-c2cc(OCC(C)(C)O)cc3c2-c2ccccc2[C@]3(O)C(F)(F)F)cn1 [compound (B), (9R)-2-(2-Hydroxy-2-methylpropoxy)-4-(1-methyl-1H-pyrazol-4-yl)-9-(trifluoromethyl)-9H-fluoren-9-ol, reference compound]	3.6	72.9		17.4
